Experiments:
[1] = molecular target: T1, Steroid 5-alpha-reductase (Rattus norvegicus, UniProt P24008+P31214); test: In vitro inhibitory activity against rat testosterone 5 alpha reductase was determined; assay type: protein assay
T1 sequence (P24008 whole entry): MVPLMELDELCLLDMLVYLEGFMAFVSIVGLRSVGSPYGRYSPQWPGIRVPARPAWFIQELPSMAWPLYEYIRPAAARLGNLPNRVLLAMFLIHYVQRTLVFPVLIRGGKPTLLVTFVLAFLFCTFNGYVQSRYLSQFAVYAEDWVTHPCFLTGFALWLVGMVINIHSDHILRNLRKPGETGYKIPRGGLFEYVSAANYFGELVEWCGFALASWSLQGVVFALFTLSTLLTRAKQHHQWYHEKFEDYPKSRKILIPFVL
T1 sequence (P31214 whole entry): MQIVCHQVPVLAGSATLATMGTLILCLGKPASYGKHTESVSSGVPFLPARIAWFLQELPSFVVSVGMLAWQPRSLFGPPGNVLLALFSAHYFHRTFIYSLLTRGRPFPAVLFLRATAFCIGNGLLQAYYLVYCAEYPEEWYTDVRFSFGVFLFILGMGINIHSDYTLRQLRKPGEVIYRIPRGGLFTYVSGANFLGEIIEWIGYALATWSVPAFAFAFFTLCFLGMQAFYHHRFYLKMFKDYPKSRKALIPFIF

[2] = molecular target: T2, 3-oxo-5-alpha-steroid 4-dehydrogenase 1 (Homo sapiens, UniProt P18405); test: In vitro inhibitory activity against human Steroid 5-alpha-reductase type 1 in COS-1 cells was determined; assay type: cell-based
T2 sequence (P18405 whole entry): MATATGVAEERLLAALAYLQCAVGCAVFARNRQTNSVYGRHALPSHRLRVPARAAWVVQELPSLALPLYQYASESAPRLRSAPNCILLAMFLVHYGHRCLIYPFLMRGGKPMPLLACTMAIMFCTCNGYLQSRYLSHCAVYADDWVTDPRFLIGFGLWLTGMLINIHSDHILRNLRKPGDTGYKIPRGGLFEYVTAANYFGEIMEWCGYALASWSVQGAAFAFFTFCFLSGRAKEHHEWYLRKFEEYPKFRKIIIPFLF

[3] = molecular target: T3, 3-oxo-5-alpha-steroid 4-dehydrogenase 2 (Homo sapiens, UniProt P31213); test: In vitro inhibitory activity against human Steroid 5-alpha-reductase type 2 in COS-1 cells was determined; assay type: cell-based
T3 sequence (P31213 whole entry): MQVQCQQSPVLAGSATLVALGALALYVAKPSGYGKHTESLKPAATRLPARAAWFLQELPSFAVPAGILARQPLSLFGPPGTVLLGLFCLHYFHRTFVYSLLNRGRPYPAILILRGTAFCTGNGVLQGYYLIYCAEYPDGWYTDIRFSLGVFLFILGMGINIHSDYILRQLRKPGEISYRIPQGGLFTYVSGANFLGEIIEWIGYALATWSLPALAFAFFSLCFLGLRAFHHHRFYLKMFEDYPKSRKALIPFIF

Structure (SMILES)	IC50 [1] [nM]	IC50 [2] [nM]	IC50 [3] [nM]
O=C(O)CCCOc1ccccc1-c1cc2ccc(C(=O)NC(c3ccccc3)c3ccccc3)cc2o1	28.5	62	270
O=C(O)CCCOc1ccccc1-c1cc2ccc(C(=O)NC(c3ccc(F)cc3)c3ccc(F)cc3)cc2o1	37.9	50	340
COc1ccc(C(NC(=O)c2ccc3cc(-c4ccccc4OCCCC(=O)O)oc3c2)c2ccc(OC)cc2)cc1	35.5	130	930
O=C(O)CCCOc1ccccc1-c1cc2cc(C(=O)NC(c3ccccc3)c3ccccc3)ccc2o1	155	310	> 100000
CC(C)Cc1ccc(C(Nc2cccc(C(=O)c3cn(CCCC(=O)O)c4ccccc34)c2)c2ccc(CC(C)C)cc2)cc1	118	3	11
COc1ccc(C(NC(=O)c2ccc3oc(-c4ccccc4OCCCC(=O)O)cc3c2)c2ccc(OC)cc2)cc1	26.3		
O=C(O)CCCOc1ccccc1-c1cc2cc(C(=O)NC(c3ccc(F)cc3)c3ccc(F)cc3)ccc2o1	279		
